Source: US20240358693A1, “METHODS OF TREATING PAIN” (Aisa Pharma, Inc., priority 2023, published 2024)

Tested on: participants with SSc-RP
Assay: Scleroderma Health Assessment Questionnaire (SHAQ): disability indices and visual analog scales
Type: in vivo, human
How it was run: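 Participants with SSc-RP completed the SHAQ at screening and each in-clinic visit. Standard and alternative disability indices (eight categories, 0–3; standard adjusts for aids/assistance) plus Raynaud's VAS on interference over the past 7 days. Reported as absolute change from baseline to end of each dosing period.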

[1] = Baseline, Tadalafil 5 mg (N = 5), Patients with Diagnosis of SSc, PP Population Part A
[2] = Day 12, Modified ITT, Part A, dose Cilnidipine 10 mg, Tadalafil 5 mg, or 10 mg + 5 mg
[3] = Day 12, Tadalafil 5 mg (N = 5), Patients with Diagnosis of SSc, PP Population Part A
[4] = Day 12, mITT Part A, SSc patients, cilnidipine 10 mg and/or tadalafil 5 mg as in the arm
[5] = Day 12, mITT Part A, SSc patients, cilnidipine 10 mg and/or tadalafil 5 mg as in the arm, subject 01-110 score excluded
[6] = In-Clinic Visit (Day 12), Tadalafil 5 mg (N = 5), Patients with Diagnosis of SSc, PP Population Part A
[7] = Modified ITT, Part A, dose Cilnidipine 10 mg, Tadalafil 5 mg, or 10 mg + 5 mg

## CN1CC(=O)N2[C@H](c3ccc4c(c3)OCO4)c3[nH]c4ccccc4c3C[C@@H]2C1=O [Tadalafil, tadalafil]
[1]
  SHAQ Alternative Disability Index, Mean: 0.450
  SHAQ Alternative Disability Index, Median: 0.375
  SHAQ Standard Disability Index, Mean: 0.550
  SHAQ Standard Disability Index, Median: 0.500
[2]
  SHAQ Alternative Disability Index, Change from Baseline, Mean: −0.094
  SHAQ Alternative Disability Index, Change from Baseline, Median: −0.125
  SHAQ Alternative Disability Index, Percent Change from Baseline, Mean: −43.70%
  SHAQ Alternative Disability Index, Percent Change from Baseline, Median: −20.00%
  SHAQ Finger Ulcers, Change from Baseline, Mean: 0.250
  SHAQ Finger Ulcers, Change from Baseline, Median: 0.000
  SHAQ Finger Ulcers, Percent Change from Baseline, Mean: 6.10%
  SHAQ Finger Ulcers, Percent Change from Baseline, Median: 6.10%
  SHAQ Standard Disability Index, Change from Baseline, Mean: −0.063
  SHAQ Standard Disability Index, Change from Baseline, Median: −0.063
  SHAQ Standard Disability Index, Percent Change from Baseline, Mean: −9.26%
  SHAQ Standard Disability Index, Percent Change from Baseline, Median: −11.11%
  SHAQ Visual Analog Scale-Breathing Problems, Change from Baseline, Mean: 0.500
  SHAQ Visual Analog Scale-Breathing Problems, Change from Baseline, Median: 1.050
  SHAQ Visual Analog Scale-Breathing Problems, Percent Change from Baseline, Mean: −2.66%
  SHAQ Visual Analog Scale-Breathing Problems, Percent Change from Baseline, Median: 29.58%
  SHAQ Visual Analog Scale-Intestinal Problems, Change from Baseline, Mean: −0.125
  SHAQ Visual Analog Scale-Intestinal Problems, Change from Baseline, Median: 0.000
  SHAQ Visual Analog Scale-Intestinal Problems, Percent Change from Baseline, Mean: −6.92%
  SHAQ Visual Analog Scale-Intestinal Problems, Percent Change from Baseline, Median: 0.00%
  SHAQ Visual Analog Scale-Pain, Change from Baseline, Mean: 1.000
  SHAQ Visual Analog Scale-Pain, Change from Baseline, Median: 0.800
  SHAQ Visual Analog Scale-Pain, Percent Change from Baseline, Mean: 31.35%
  SHAQ Visual Analog Scale-Pain, Percent Change from Baseline, Median: 10.81%
  SHAQ Visual Analog Scale-Raynaud's, Change from Baseline, Mean: −0.825
  SHAQ Visual Analog Scale-Raynaud's, Change from Baseline, Median: −0.500
  SHAQ Visual Analog Scale-Raynaud's, Percent Change from Baseline, Mean: −19.71%
  SHAQ Visual Analog Scale-Raynaud's, Percent Change from Baseline, Median: −20.67%
[3]
  SHAQ Alternative Disability Index, Change from Baseline, Mean: −0.094
  SHAQ Alternative Disability Index, Change from Baseline, Median: −0.125
  SHAQ Alternative Disability Index, Percent Change from Baseline, Mean: −43.70%
  SHAQ Alternative Disability Index, Percent Change from Baseline, Median: −20.00%
  SHAQ Standard Disability Index, Change from Baseline, Mean: −0.063
  SHAQ Standard Disability Index, Change from Baseline, Median: −0.063
  SHAQ Standard Disability Index, Percent Change from Baseline, Mean: −9.26%
  SHAQ Standard Disability Index, Percent Change from Baseline, Median: −11.11%
[4]
  SHAQ Alternative Disability Index, Change from Baseline, Mean: −0.094
  SHAQ Alternative Disability Index, Change from Baseline, Median: −0.125
  SHAQ Alternative Disability Index, In-Clinic Visit (Day 12), Mean: 0.375
  SHAQ Alternative Disability Index, In-Clinic Visit (Day 12), Median: 0.250
  SHAQ Alternative Disability Index, Percent Change from Baseline, Mean: −43.70%
  SHAQ Alternative Disability Index, Percent Change from Baseline, Median: −20.00%
  SHAQ Visual Analogue Scale - Finger Ulcers, Change from Baseline, Mean: 0.250
  SHAQ Visual Analogue Scale - Finger Ulcers, Change from Baseline, Median: 0.000
  SHAQ Visual Analogue Scale - Finger Ulcers, In-Clinic Visit (Day 12), Mean: 2.325
  SHAQ Visual Analogue Scale - Finger Ulcers, In-Clinic Visit (Day 12), Median: 0.050
  SHAQ Visual Analogue Scale - Finger Ulcers, Percent Change from Baseline, Mean: 6.10%
  SHAQ Visual Analogue Scale - Finger Ulcers, Percent Change from Baseline, Median: 6.10%
  SHAQ Visual Analogue Scale - Intestinal Problems, Change from Baseline, Mean: −0.125
  SHAQ Visual Analogue Scale - Intestinal Problems, Change from Baseline, Median: 0.000
  SHAQ Visual Analogue Scale - Intestinal Problems, In-Clinic Visit (Day 12), Mean: 3.025
  SHAQ Visual Analogue Scale - Intestinal Problems, In-Clinic Visit (Day 12), Median: 1.450
  SHAQ Visual Analogue Scale - Intestinal Problems, Percent Change from Baseline, Mean: −6.92%
  SHAQ Visual Analogue Scale - Intestinal Problems, Percent Change from Baseline, Median: 0.00%
  SHAQ Visual Analogue Scale - Overall Disease Severity, Change from Baseline, Mean: 0.625
  SHAQ Visual Analogue Scale - Overall Disease Severity, Change from Baseline, Median: 0.700
  SHAQ Visual Analogue Scale - Overall Disease Severity, In-Clinic Visit (Day 12), Mean: 5.600
  SHAQ Visual Analogue Scale - Overall Disease Severity, In-Clinic Visit (Day 12), Median: 6.550
  SHAQ Visual Analogue Scale - Overall Disease Severity, Percent Change from Baseline, Mean: 32.49%
  SHAQ Visual Analogue Scale - Overall Disease Severity, Percent Change from Baseline, Median: 26.79%
  SHAQ Visual Analogue Scale - Pain, Change from Baseline, Mean: 1.000
  SHAQ Visual Analogue Scale - Pain, Change from Baseline, Median: 0.800
  SHAQ Visual Analogue Scale - Pain, In-Clinic Visit (Day 12), Mean: 5.300
  SHAQ Visual Analogue Scale - Pain, In-Clinic Visit (Day 12), Median: 5.850
  SHAQ Visual Analogue Scale - Pain, Percent Change from Baseline, Mean: 31.35%
  SHAQ Visual Analogue Scale - Pain, Percent Change from Baseline, Median: 10.81%
  SHAQ Visual Analogue Scale - Raynaud's, Change from Baseline, Mean: −0.825
  SHAQ Visual Analogue Scale - Raynaud's, Change from Baseline, Median: −0.500
  SHAQ Visual Analogue Scale - Raynaud's, In-Clinic Visit (Day 12), Mean: 4.950
  SHAQ Visual Analogue Scale - Raynaud's, In-Clinic Visit (Day 12), Median: 5.200
  SHAQ Visual Analogue Scale - Raynaud's, Percent Change from Baseline, Mean: −19.71%
  SHAQ Visual Analogue Scale - Raynaud's, Percent Change from Baseline, Median: −20.67%
[5]
  SHAQ Visual Analogue Scale - Breathing Problems, Change from Baseline, Mean: 0.500
  SHAQ Visual Analogue Scale - Breathing Problems, Change from Baseline, Median: 1.050
  SHAQ Visual Analogue Scale - Breathing Problems, In-Clinic Visit (Day 12), Mean: 4.300
  SHAQ Visual Analogue Scale - Breathing Problems, In-Clinic Visit (Day 12), Median: 4.000
  SHAQ Visual Analogue Scale - Breathing Problems, Percent Change from Baseline, Mean: −2.66%
  SHAQ Visual Analogue Scale - Breathing Problems, Percent Change from Baseline, Median: 29.58%
[6]
  SHAQ Alternative Disability Index, Mean: 0.375
  SHAQ Alternative Disability Index, Median: 0.250
  SHAQ Standard Disability Index, Mean: 0.531
  SHAQ Standard Disability Index, Median: 0.563
[7]
  SHAQ Finger Ulcers, Baseline, Mean: 2.075
  SHAQ Finger Ulcers, Baseline, Median: 0.050
  SHAQ Finger Ulcers, In Clinic Visit (Day 12), Mean: 2.325
  SHAQ Finger Ulcers, In Clinic Visit (Day 12), Median: 0.050
  SHAQ Standard disability index, Baseline, Mean: 0.594
  SHAQ Standard disability index, Baseline, Median: 0.625
  SHAQ Standard disability index, In Clinic Visit (Day 12), Mean: 0.531
  SHAQ Standard disability index, In Clinic Visit (Day 12), Median: 0.563
  SHAQ Visual Analog Scale-Breathing Problems, Baseline, Mean: 3.800
  SHAQ Visual Analog Scale-Breathing Problems, Baseline, Median: 4.050
  SHAQ Visual Analog Scale-Breathing Problems, In Clinic Visit (Day 12), Mean: 4.300
  SHAQ Visual Analog Scale-Breathing Problems, In Clinic Visit (Day 12), Median: 4.000
  SHAQ Visual Analog Scale-Intestinal Problems, Baseline, Mean: 3.150
  SHAQ Visual Analog Scale-Intestinal Problems, Baseline, Median: 2.600
  SHAQ Visual Analog Scale-Intestinal Problems, In Clinic Visit (Day 12), Mean: 3.025
  SHAQ Visual Analog Scale-Intestinal Problems, In Clinic Visit (Day 12), Median: 1.450
  SHAQ Visual Analog Scale-Pain, Baseline, Mean: 5.967
  SHAQ Visual Analog Scale-Pain, Baseline, Median: 7.400
  SHAQ Visual Analog Scale-Pain, In Clinic Visit (Day 12), Mean: 5.300
  SHAQ Visual Analog Scale-Pain, In Clinic Visit (Day 12), Median: 5.850
  SHAQ Visual Analog Scale-Raynaud's, Baseline, Mean: 5.775
  SHAQ Visual Analog Scale-Raynaud's, Baseline, Median: 6.400
  SHAQ Visual Analog Scale-Raynaud's, In Clinic Visit (Day 12), Mean: 4.950
  SHAQ Visual Analog Scale-Raynaud's, In Clinic Visit (Day 12), Median: 5.200
  SHAQ alternative disability index, Baseline, Mean: 0.469
  SHAQ alternative disability index, Baseline, Median: 0.375
